Experiments:
[1] = tested on: human pancreatic cancer cells, MiaPaCa-2 cells; assay: Test Example 2: order of arctigenin treatment and radiation therapy in mice transplanted with MiaPaCa-2 cells; type: in vivo, BALB/cAJc1-nu/nu mice
Procedure: In order to evaluate whether the order of the burdock fruit extract treatment and the radiation therapy would affect the antitumor effects, arctigenin treatment was conducted for two weeks either before or after conducting radiation therapy. To BALB/cAJc1-nu/nu mice (CLEA Japan, Inc.), 1×10^6 human pancreatic cancer cells, MiaPaCa-2 cells were subcutaneously transplanted. On day 14 after the transplantation, the mice to which the cells were transplanted were divided into (a) untreated group, (b) arctigenin treatment group, (c) radiation therapy group and (d) arctigenin treatment-radiation therapy-combination group. The (b) arctigenin treatment group was further divided into a group in which two-week arctigenin treatment was started 14 days after the transplantation and a group in which two-week arctigenin treatment was started four weeks after the transplantation. […] When the dose of arctigenin was calculated assuming that the daily intake of the feed of the mice was 3 to 5 g, the dose was 1.5 to 2.5 mg/individual/day. […] After the two-week arctigenin treatment after the radiation therapy, the tumor sizes and the tumor weights of the groups were measured. In addition, the tumors were collected and pathologically analyzed.

[2] = cited from earlier work
[3] = tested on: human pancreatic cancer cells, MiaPaCa-2 cells; assay: Test Example 1: antitumor effects of arctigenin treatment and radiation therapy in mice transplanted with MiaPaCa-2 cells; type: in vivo, BALB/cAJc1-nu/nu mice
Procedure: The antitumor effects of arctigenin treatment and radiation therapy were evaluated. To BALB/cAJc1-nu/nu mice (CLEA Japan, Inc.), 1×10^6 human pancreatic cancer cells, MiaPaCa-2 cells were subcutaneously transplanted. On day 14 after the transplantation, the mice to which the cells were transplanted were divided into four groups of (a) untreated group, (b) arctigenin treatment group, (c) radiation therapy group and (d) arctigenin treatment-radiation therapy-combination group. The arctigenin treatment group and the combination group were treated with arctigenin for two weeks. The arctigenin treatment was conducted by giving feed containing 0.5% (w/w) of the burdock fruit extract of Example 1 to the mice. When the dose of arctigenin was calculated assuming that the daily intake of the feed of the mice was 3 to 5 g, the dose was 1.5 to 2.5 mg/individual/day. After two weeks of the arctigenin treatment, radiation was applied to the tumors of the radiation therapy group and the combination group using an x-ray irradiator (Faxitron X-ray (model: CP160)) under the setting conditions of 160 kV and 6.3 mA at a dose of 20 Gy/fraction through a copper plate filter. Then, the arctigenin administration group and the combination group were treated with arctigenin for two weeks. After the arctigenin treatment, the tumor sizes and the tumor weights of the groups were measured. In addition, the tumors were collected and pathologically analyzed.

[4] = combination of arctigenin treatment and radiation therapy (20 Gy/fraction), two weeks after the radiation therapy, vs untreated group

For COc1cc(C[C@H]2C(=O)OC[C@@H]2Cc2ccc(OC)c(OC)c2)ccc1O [arctigenin], the “hypoxic state in the tumor” value ([1]; arctigenin treatment before the radiation therapy, IVIS, FIG. 12) is listed as “improved”, the average tumor size ([1]; two-week arctigenin treatment before radiation therapy (AG-Con, RT(+)) vs arctigenin treatment after radiation therapy (Con-AG, RT(+)), FIG. 11) is listed as “shrank significantly” and the solubility in water [2] is listed as “insoluble”. For the same molecule, the “intratumoral hypoxic region (photon counts/tumor volume) using IVIS” value ([3]; after the arctigenin treatment (before radiation therapy), vs untreated group, FIG. 3, FIG. 4) was “significantly smaller”, the average tumor size ([3]; after two weeks of first arctigenin treatment (before radiation therapy), vs untreated group, feed containing 0.5% (w/w) burdock fruit extract of Example 1, arctigenin 1.5 to 2.5 mg/individual/day, FIG. 2) was “significantly smaller” and the tumor size ([3]; arctigenin treatment alone, after end of treatment (two weeks after the radiation therapy), vs untreated group) was “a tendency towards a smaller tumor size”. For the same molecule, the tumor sizes [3, 4] was “significantly smaller”, the tumor weights [3, 4] was “significantly smaller” and the “tumors (size)” value ([3]; combination of arctigenin treatment and radiation therapy, vs radiation therapy alone) was “significantly small”.
